We go through one compound from article PMC6028453, “BrlR from Pseudomonas aeruginosa is a receptor for both cyclic di-GMP and pyocyanin” (Nature Communications, 2018).

One assay concerns the target T1, BrlR mutant Y40A (Pseudomonas aeruginosa, UniProt Q9HUT5, Y40A).
T1 construct: His6-SUMO (N, cleaved yes); made in house; host or cells: E. coli BL21 DE3
In words: FP binding assay, BrlR Y40A. As for the experimental part:
(§1) F-c-di-GMP and F-c-di-AMP both contain a fluorophore at one of the 2′-ribose hydroxyls of c-di-GMP and c-di-AMP, respectively (Fig. 2f). To measure the binding of c-di-GMP and c-di-AMP to BrlR variants, 1 nM F-c-di-GMP or F-c-di-AMP was incubated with increasing amounts of indicated BrlR WT, BrlR mutation, or BrlR-C in reaction buffer (25 mM HEPES, 100 mM NaCl, pH 7.5) at 25 °C for 20 min. 1 nM fluorescein was incubated with BrlR WT in the same reaction buffer at 25 °C. FP measurements were conducted on a Synergy 4 Microplate Reader (BioTek) at 25 °C. All experiments were performed in triplicate. The curves were fitted to deduce binding affinities by GraphPad Prism 5.
(§2) BrlR–c-di-GMPs interactions in two separate c-di-GMP binding sites
(§3) In the first binding site, c-di-GMP is half accommodated by the antiparallel β-sheet and two residues (M1 and D35). In detail, the backbone amide protons of the first M1 residue form a hydrogen bond (H-bond) with the phosphate oxygen atom of c-di-GMP, and the side chain of R31 forms two H-bonds with the Gua1 base. The residue D35 also forms an H-bond with the Gua1 base. The aromatic ring of Y40 interacts with the Gua1 base through a hydrophobic π-π interaction. In addition, the hydroxyl group of the Y270 side chain from another subunit interacts with the phosphate 2 of c-di-GMP via an H-bond (Fig. 2d). […]

In a further assay the target is T2, BrlR mutant D35A (Pseudomonas aeruginosa, UniProt Q9HUT5, D35A).
T2 construct: His6-SUMO (N, cleaved yes); made in house; host or cells: E. coli BL21 DE3
T2 sequence (Q9HUT5 whole entry D35A): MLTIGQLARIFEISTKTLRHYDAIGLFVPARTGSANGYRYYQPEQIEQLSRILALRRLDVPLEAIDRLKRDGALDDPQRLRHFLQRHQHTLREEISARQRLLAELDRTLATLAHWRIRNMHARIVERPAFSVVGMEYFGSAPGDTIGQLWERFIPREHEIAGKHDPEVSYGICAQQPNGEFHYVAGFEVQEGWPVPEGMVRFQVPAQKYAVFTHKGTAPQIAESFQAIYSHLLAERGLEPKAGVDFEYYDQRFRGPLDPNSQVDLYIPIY
As to the kind of experiment: FP binding assay, BrlR D35A. As for the experimental part: as §1, §2, §3

The target of another assay is T3, BrlR mutant R86A (Pseudomonas aeruginosa, UniProt Q9HUT5, R86A).
T3 construct: His6-SUMO (N, cleaved yes); made in house; host or cells: E. coli BL21 DE3
T3 sequence (Q9HUT5 whole entry R86A): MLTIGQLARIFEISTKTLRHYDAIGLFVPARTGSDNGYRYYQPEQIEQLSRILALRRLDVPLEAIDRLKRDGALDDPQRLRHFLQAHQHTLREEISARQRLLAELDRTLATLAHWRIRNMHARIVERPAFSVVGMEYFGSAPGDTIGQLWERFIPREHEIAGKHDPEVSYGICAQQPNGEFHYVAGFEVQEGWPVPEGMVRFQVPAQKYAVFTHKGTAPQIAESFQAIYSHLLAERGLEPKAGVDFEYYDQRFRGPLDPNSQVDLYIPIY
As to the kind of experiment: FP binding assay, BrlR R86A. On the procedure: as §1, §2, §3

Assay [1] addresses T4, C2E mut3 (R31A/D35A/Y40A/R67A/R86A/Y270A) DNA binding (Pseudomonas aeruginosa, UniProt Q9HUT5, D35A/R31A/R67A/R86A/Y270A/Y40A).
T4 construct: His6-SUMO (N, cleaved yes); made in house; host or cells: E. coli BL21 DE3
In words: EMSA, C2E mut3. It counts as biochemical. As for the experimental part: (§4) A 6-carboxy-fluorescein (FAM)-labeled 36-bp brlR promoter DNA (PbrlR) or 80-bp mexA/mexE promoter DNA (PmexA/PmexE) probes (~0.375 pmol), BrlR protein and varying amounts of inducers were incubated in binding buffer (10 mM Tris HCl [pH 7.4], 50 mM KCl, 1 mM DTT, […] and 5 ng/mL poly [dI-dC]) for 60 min at 25 °C. Finally, glycerol was added to a concentration of 6.5%. The samples were subjected to a 5% polyacrylamide gel electrophoresis and run in 0.5 × Tris-borate-EDTA buffer at 80 V for 1 h at room temperature. Imaging and data analyses were performed using a Typhoon Scanner (GE Healthcare) and Imagequant software. The probes used are listed in Supplementary Table 1.

In the next assay the target is T5, BrlR R31A DNA binding (Pseudomonas aeruginosa, UniProt Q9HUT5, R31A).
T5 construct: His6-SUMO (N, cleaved yes); made in house; host or cells: E. coli BL21 DE3
T5 sequence (Q9HUT5 whole entry R31A): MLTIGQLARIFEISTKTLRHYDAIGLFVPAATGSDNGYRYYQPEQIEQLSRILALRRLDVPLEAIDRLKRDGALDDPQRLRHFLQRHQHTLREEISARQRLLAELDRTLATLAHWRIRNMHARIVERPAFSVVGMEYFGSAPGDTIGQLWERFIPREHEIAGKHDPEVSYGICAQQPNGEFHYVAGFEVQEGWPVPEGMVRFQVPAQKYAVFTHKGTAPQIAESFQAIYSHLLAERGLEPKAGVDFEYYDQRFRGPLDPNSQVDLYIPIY
As to the kind of experiment: EMSA, BrlR R31A. It counts as biochemical. On the procedure:
as §4

The next assay addresses T6, BrlR D35A DNA binding (Pseudomonas aeruginosa, UniProt Q9HUT5, D35A).
T6 construct: His6-SUMO (N, cleaved yes); made in house; host or cells: E. coli BL21 DE3
As to the kind of experiment: EMSA, BrlR D35A. Type of assay: biochemical. As for the experimental part:
as §4

For assay [2], the system named is brlR promoter activity (C2E mut1). As to the kind of experiment: β-galactosidase assay, C2E mut1. Type of assay: cell-based, Pseudomonas aeruginosa. On the procedure: (§5) We also performed β-galactosidase activity assays using a PbrlR-brlR-lacZ reporter construct to investigate the transcriptional function of BrlR mutants in vivo. […] To confirm the effect of c-di-GMP in P. aeruginosa, we carried out real-time quantitative PCR analyses. Following a previous report, we introduced the diguanylate cyclase PA4843 into a WT P. aeruginosa strain carrying either pHERD20T-empty or pHERD20T-PA4843. The transcription level of brlR was analyzed using the brlR 5 F and brlR 3 R primers (Supplementary Table 1). The transcriptional level of brlR in pHERD20T-PA4843 strain is 4.5 ± 1.3-fold higher than that in the pHERD20T-empty strain (Fig. 4h).
(§6) β-galactosidase activity was assayed with P. aeruginosa PA01 ΔbrlR strain carrying plasmid pME6522-borne transcriptional lacZ fusions. P. aeruginosa carrying the empty vector was used as the […]. The reporter plasmids are derivatives of the pME6522 plasmid in which multiple cloning sites were inserted before the LacZ with the promoter and coding regions of brlR with diverse mutations. These reporter plasmids were transformed into the reporter strain. Overnight cultures were diluted 20-fold with LB medium supplemented with appropriate antibiotics. […]

Assay [3] deals with brlR promoter activity (C2E mut2). As to the kind of experiment: β-galactosidase assay, C2E mut2. It counts as cell-based, Pseudomonas aeruginosa. As for the experimental part: as §5, §6
Assay [4] relates to brlR promoter activity (C2E mut3). As to the kind of experiment: β-galactosidase assay, C2E mut3. It counts as cell-based, Pseudomonas aeruginosa. On the procedure: as §5, §6

T4 sequence (Q9HUT5 whole entry R31A/D35A/Y40A/R67A/R86A/Y270A): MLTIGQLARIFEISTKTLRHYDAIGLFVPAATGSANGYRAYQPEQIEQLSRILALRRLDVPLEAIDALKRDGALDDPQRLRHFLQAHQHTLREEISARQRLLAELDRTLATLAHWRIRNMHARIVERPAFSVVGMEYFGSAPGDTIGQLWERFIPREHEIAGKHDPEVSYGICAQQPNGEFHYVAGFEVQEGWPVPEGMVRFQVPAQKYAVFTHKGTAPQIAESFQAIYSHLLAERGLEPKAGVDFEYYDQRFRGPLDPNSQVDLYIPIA
T1 sequence (Q9HUT5 whole entry Y40A): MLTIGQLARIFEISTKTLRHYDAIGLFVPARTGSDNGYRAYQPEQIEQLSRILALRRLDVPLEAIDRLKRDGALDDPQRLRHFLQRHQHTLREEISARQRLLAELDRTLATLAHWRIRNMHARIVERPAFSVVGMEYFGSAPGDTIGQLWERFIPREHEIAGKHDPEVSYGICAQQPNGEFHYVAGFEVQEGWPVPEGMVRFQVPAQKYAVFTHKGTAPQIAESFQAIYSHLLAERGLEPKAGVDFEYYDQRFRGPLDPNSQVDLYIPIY
T6 sequence (Q9HUT5 whole entry D35A): as the sequence (Q9HUT5 whole entry D35A) above

As to `Nc1nc2c(ncn2[C@@H]2O[C@@H]3COP(=O)(O)O[C@H]4[C@@H](O)[C@H](n5cnc6c(=O)[nH]c(N)nc65)O[C@@H]4COP(=O)(O)O[C@H]3[C@H]2O)c(=O)[nH]1` [c-di-GMP, cyclic diguanylate monophosphate], the Kd was determined as 34.2 ± 2.6 µM at BrlR mutant Y40A and 17.5 ± 0.9 µM on BrlR mutant D35A. Also, the “KD value (in words)” value at BrlR mutant R86A is given as “like that of C2E mut2”. The “effect of c-di-GMP on DNA binding” value in [1] was “did not have any effect”. For the same compound, the figures for the “DNA bound in the presence vs absence of c-di-GMP” value at BrlR R31A DNA binding and on BrlR D35A DNA binding were ~ 1.3 fold and ~ 4.8 fold, respectively. For the same compound, the results for the “increase at high vs low c-di-GMP concentration (β-galactosidase activity)” value in assay [2] and in [3] were 2.0 fold and 2.2 fold, respectively. Also, the “response of β-galactosidase activity to increase in c-di-GMP concentration” value in assay [4] is on record as “no response”.
